Drawing on PubChem BioAssay (NCI), this text covers TGI and GI50 for ten compounds.

“And” between values parts separate entries of the source, which are not always exact repeats. Identical values can stand only once.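 Exposure lasted 48 hours, with cells grown in 96-well plates and compounds tested at five concentrations. The concentration for 50% growth inhibition is given as GI50. The concentration for full growth arrest is given as TGI.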 Where only a bound is given, the exact number is not on record here.

Some test systems named below: CAKI-1 renal; UACC-257 melanoma; OVCAR-3 ovarian; COLO 205 colon; SK-MEL-28 melanoma; NCI-H226 lung; MOLT-4 leukemia; NCI-H522 lung; M14 melanoma; SW-620 colon.
Holding throughout (test): NCI anticancer screen, dose series, 48 h

For `O=C1NC(=S)NC(=O)C1=Cc1cc2c(cc1[N+](=O)[O-])OCO2`, the TGI with CAKI-1 renal, in the experiment on UACC-257 melanoma, in the experiment on OVCAR-3 ovarian, in the experiment on COLO 205 colon, with SK-MEL-28 melanoma and in the experiment on NCI-H226 lung was more than 100 µM in each case. The TGI with MOLT-4 leukemia, in the experiment with NCI-H522 lung, in the experiment on M14 melanoma and in the experiment with SW-620 colon was more than 100 µM throughout.
On to `CCCN(CCCCC(NC(C)=O)C(=O)NCc1ccccc1)C(=O)NCCCl` (configuration not stated), for which the TGI in the experiment on CAKI-1 renal, in the experiment on UACC-257 melanoma, in the experiment with OVCAR-3 ovarian, with COLO 205 colon, with SK-MEL-28 melanoma and in the experiment with NCI-H226 lung was more than 100 µM each time. In addition, the TGI with MOLT-4 leukemia, in the experiment with NCI-H522 lung, in the experiment with M14 melanoma and in the experiment with SW-620 colon was more than 100 µM in each case.
In the case of `CC[C@]1(O)CC2CN(CCc3c([nH]c4ccccc34)[C@@](C(=O)OC)(c3cc4c(cc3OC)N(C)[C@H]3[C@@](O)(C(=O)OC)[C@H](OC(C)=O)[C@]5(CC)C=CCN6CC[C@]43[C@@H]65)C2)C1` (some centres not stated), the GI50 was 0.0804 µM in the experiment on CAKI-1 renal; less than 0.005 µM in the experiment with OVCAR-3 ovarian; less than 0.005 µM in the experiment with COLO 205 colon; less than 0.005 µM in the experiment on NCI-H226 lung; less than 0.005 µM in the experiment on MOLT-4 leukemia; less than 0.005 µM in the experiment with NCI-H522 lung. The GI50 with M14 melanoma and in the experiment with SW-620 colon was less than 0.005 µM in each case. For the same compound, the TGI with CAKI-1 renal was 21.6 µM; with OVCAR-3 ovarian, less than 0.005 µM; with COLO 205 colon, 0.00511 µM; in the experiment on NCI-H226 lung it was 0.148 µM; with MOLT-4 leukemia, 0.721 µM; in the experiment with NCI-H522 lung, 0.00536 µM. Moreover, the TGI in the experiment on M14 melanoma came to 0.0417 µM; in the experiment with SW-620 colon it was 8.54 µM.
As for `COc1ccc(/C=C/C(=O)c2cc3c(N)c(C(=O)Nc4ccccc4Cl)sc3nc2C)cc1`, the GI50 with CAKI-1 renal is 7.51 µM; with UACC-257 melanoma, 1.19 µM; with OVCAR-3 ovarian, 2.11 µM; with COLO 205 colon, 17.2 µM; in the experiment on NCI-H226 lung it was 2.43 µM; in the experiment on MOLT-4 leukemia, 4.59 µM. Also, the GI50 in the experiment on NCI-H522 lung was 0.365 µM; in the experiment with M14 melanoma it was 0.481 µM; in the experiment on SW-620 colon, 3.39 µM. Besides, the TGI with CAKI-1 renal was more than 50 µM; in the experiment on UACC-257 melanoma, 13.5 µM; with OVCAR-3 ovarian, 16.3 µM; in the experiment on COLO 205 colon it was more than 50 µM; in the experiment on NCI-H226 lung, 17.4 µM; with MOLT-4 leukemia it was more than 50 µM. Moreover, the TGI in the experiment on NCI-H522 lung, in the experiment with M14 melanoma and in the experiment with SW-620 colon was more than 50 µM in each case.
As to `Cc1cn(C2CC(F)C(CO)O2)c(=O)[nH]c1=O` (configuration not stated), the GI50 in the experiment with CAKI-1 renal, in the experiment with UACC-257 melanoma, with OVCAR-3 ovarian, in the experiment with COLO 205 colon, in the experiment with SK-MEL-28 melanoma and in the experiment with NCI-H226 lung was more than 100 µM in each case. Further, the GI50 in the experiment with MOLT-4 leukemia, with NCI-H522 lung and with M14 melanoma was more than 100 µM in each case. In addition, the TGI with CAKI-1 renal, in the experiment on UACC-257 melanoma, in the experiment with OVCAR-3 ovarian, with COLO 205 colon, with SK-MEL-28 melanoma and with NCI-H226 lung was more than 100 µM each time. Moreover, the TGI in the experiment with MOLT-4 leukemia, in the experiment on NCI-H522 lung and in the experiment on M14 melanoma was more than 100 µM throughout.
As to `O=C1C=C[C@@]23CC1C(O)C[C@H]2C=Cc1ccccc13` (some centres not stated), the TGI with CAKI-1 renal, with UACC-257 melanoma, in the experiment with OVCAR-3 ovarian, in the experiment on COLO 205 colon, with NCI-H226 lung and with MOLT-4 leukemia was more than 100 µM each time. Also, the TGI in the experiment on NCI-H522 lung, in the experiment on M14 melanoma and in the experiment on SW-620 colon was more than 100 µM in each case.
In the case of `CCN(CC)c1ccc(/C=C\c2cc(C)c3cc(C)ccc3n2)cc1`, the GI50 in the experiment on CAKI-1 renal was 5.55 µM; with OVCAR-3 ovarian it was 3.24 µM; with COLO 205 colon it was 3.67 µM; with SK-MEL-28 melanoma, 5.17 µM; with NCI-H226 lung it was 7.29 µM; in the experiment with MOLT-4 leukemia, 6.12 µM. Moreover, the GI50 in the experiment on NCI-H522 lung was 1.49 µM; in the experiment on M14 melanoma, 3.89 µM; in the experiment with SW-620 colon it was 3.52 µM. Besides, the TGI in the experiment on CAKI-1 renal is more than 100 µM; in the experiment with OVCAR-3 ovarian, 12.4 µM; with COLO 205 colon it was 18.5 µM; in the experiment on SK-MEL-28 melanoma, more than 100 µM; with NCI-H226 lung, more than 100 µM; in the experiment on MOLT-4 leukemia, more than 100 µM. Moreover, the TGI is 5.19 µM in the experiment on NCI-H522 lung, more than 100 µM with M14 melanoma and more than 100 µM in the experiment with SW-620 colon.
Consider `O=C1c2cccc3cc([N+](=O)[O-])cc(c23)C(=O)N1CCNCCNCCNCCN1C(=O)c2cccc3cc([N+](=O)[O-])cc(c23)C1=O`, for which the TGI in the experiment with CAKI-1 renal was 0.548 µM; in the experiment on UACC-257 melanoma, 0.184 µM and 0.334 µM; in the experiment on OVCAR-3 ovarian, 0.343 µM and 0.94 µM; in the experiment on SK-MEL-28 melanoma it was 0.338 µM and 0.279 µM; with NCI-H226 lung, 0.309 µM and 0.315 µM; in the experiment with MOLT-4 leukemia, 1.13 µM. For the same compound, the TGI in the experiment with NCI-H522 lung was 0.101 µM and 0.317 µM; with M14 melanoma, 0.161 µM; in the experiment with SW-620 colon, 0.449 µM and 0.534 µM. The GI50 with UACC-257 melanoma was 0.0979 µM; with NCI-H522 lung, less than 0.001 µM.
For `N[C@@H](Cc1c[nH]c2ccccc12)C(=O)NC1CCN(C(=O)c2c[nH]c3ccccc23)CC1`, the GI50 in the experiment with CAKI-1 renal is more than 100 µM; in the experiment with OVCAR-3 ovarian it was more than 100 µM; with COLO 205 colon, 47.9 µM; in the experiment with SK-MEL-28 melanoma, more than 100 µM; with NCI-H226 lung it was more than 100 µM; with MOLT-4 leukemia, 63.5 µM. In addition, the GI50 with NCI-H522 lung, in the experiment with M14 melanoma and with SW-620 colon was more than 100 µM throughout. Besides, the TGI with CAKI-1 renal, with OVCAR-3 ovarian, with COLO 205 colon, in the experiment with SK-MEL-28 melanoma, in the experiment with NCI-H226 lung and in the experiment on MOLT-4 leukemia was more than 100 µM in each case. The TGI in the experiment with NCI-H522 lung, in the experiment on M14 melanoma and in the experiment with SW-620 colon was more than 100 µM each time.
`Cc1ccc(NC(=O)CC2C(=O)Nc3ccccc3S2=O)cc1C` (configuration not stated): the TGI in the experiment with CAKI-1 renal, in the experiment with UACC-257 melanoma, in the experiment with OVCAR-3 ovarian, in the experiment on SK-MEL-28 melanoma, in the experiment with NCI-H226 lung and with MOLT-4 leukemia was more than 100 µM each time. In addition, the TGI in the experiment on NCI-H522 lung, in the experiment with M14 melanoma and in the experiment on SW-620 colon was more than 100 µM in each case.
